Source: patent publication EP0298135A1, “Phenylalanine derivative and proteinase inhibitor” (Okamoto, Shosuke, priority 1987, dated 1989)
Where a name gives a salt, the structure may show the parent alone.

How the values were obtained:
Assay type in all cases: biochemical
human plasmin [1] = biological target: T1, human plasmin (Homo sapiens, UniProt P00747); experiment: Antiplasmin activity: inhibition of S-2251 decomposition; conditions: Table 2; substrate S-2251, pH 7.4, 37°C; read-out: Plasmin S-2251 (concentration I₅₀)
T1 sequence (P00747 581-810 limits assumed): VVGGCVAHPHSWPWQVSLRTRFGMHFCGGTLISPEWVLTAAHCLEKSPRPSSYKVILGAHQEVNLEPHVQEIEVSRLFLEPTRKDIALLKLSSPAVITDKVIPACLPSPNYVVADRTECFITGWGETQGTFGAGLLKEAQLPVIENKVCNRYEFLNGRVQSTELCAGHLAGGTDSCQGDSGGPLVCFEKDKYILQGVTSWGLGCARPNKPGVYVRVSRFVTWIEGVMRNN
T1 sequence (P00747 97-580 partner limits assumed): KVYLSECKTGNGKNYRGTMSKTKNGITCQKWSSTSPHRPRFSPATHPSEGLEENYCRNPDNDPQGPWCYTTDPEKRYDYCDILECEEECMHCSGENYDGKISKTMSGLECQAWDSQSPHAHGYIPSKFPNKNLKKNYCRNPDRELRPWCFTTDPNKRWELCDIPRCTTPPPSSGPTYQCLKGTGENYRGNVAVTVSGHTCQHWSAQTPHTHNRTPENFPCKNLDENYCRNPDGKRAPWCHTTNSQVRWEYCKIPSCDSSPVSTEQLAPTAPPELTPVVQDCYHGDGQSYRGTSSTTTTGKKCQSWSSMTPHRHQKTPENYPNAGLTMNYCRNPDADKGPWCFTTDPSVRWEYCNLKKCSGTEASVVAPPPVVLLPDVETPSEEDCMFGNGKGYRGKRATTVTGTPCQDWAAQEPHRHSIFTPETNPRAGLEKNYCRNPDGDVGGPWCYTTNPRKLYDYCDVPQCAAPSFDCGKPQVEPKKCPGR
Description: (ii) Determination of inhibition activity on S-225l decomposition
An inhibitor sample is dissolved in a 0.05 M Tris-hydrochloric acid buffer solution (pH = 7.4) to bring the total volume to 400 µl. To this solution, 50 µl of a 3 mM S-225l solution is added and the mixture is incubated at a temperature of 37°C for 5 minutes in a constant temperature bath. Then 50 µl of a 0.2 casein unit/ml human plasmin is added and the mixture is incubated at a temperature of 37°C for 4 minutes. Thereafter, the reaction is stopped by adding 50 µl of 50% acetic acid.
Thus, the concentration I₅₀ (µmol) of the inhibitor sample, at which the absorbance is one half (i.e., l/2) of that obtained in the absence of the inhibitor, is determined.

bovine thrombin [2] = biological target: T2, bovine thrombin (Bos taurus, UniProt P00735); experiment: Antithrombin activity: inhibition of fibrin formation from fibrinogen
Description: (i) Determination of inhibition activity against fibrin formation
An inhibitor sample is dissolved in a 0.l8 M borate-physiological salt buffer solution (pH = 7.4) to bring the total volume to 500 µl. To this solution, 400 µl of a 0.2% bovine fibrinogen solution and l00 µl of a 4 unit/ml bovine thrombin solution are added at a temperature of 37°C in a constant temperature bath. Thus, a coagulation time is determined. The inhibitor concentration I₅₀ (µmol), at which the coagulation time obtained in the absence of the inhibitor is extended twice, is determined.

human plasmin [3] = biological target: T1, human plasmin; experiment: Antiplasmin activity: inhibition of fibrin decomposition; conditions: Table 2; concentration at which fibrin dissolution time is extended twice, pH 7.4, 37°C; read-out: Plasmin Fibrin (concentration I₅₀)
Description: (i) Determination of inhibition activity on fibrin decomposition
An inhibitor sample is dissolved in a 0.l8 M borate-physiological salt buffer solution (pH = 7.4) to bring the total volume to 600 µl. To this buffer solution, 200 µl of a 0.2% bovine fibrinogen, l00 µl of a 0.3 casein unit/ml human plasmin solution, and l00 µl of a 50 unit/ml bovine thrombin solution, all dissolved in the above-mentioned buffer, are added at a temperature of 37°C in a constant temperature bath. The dissolution time of the fibrin mass formed above is then determined.

human urokinase = human urokinase (Homo sapiens, UniProt P00749); experiment: Antiurokinase activity: inhibition of S-2444 decomposition; conditions: Table 2; substrate S-2444, pH 8.8, 37°C; read-out: Urokinase S-2444 (concentration I₅₀)
Description: Determination of inhibition activity for S-2444 decomposition
An inhibitor sample is dissolved in a 0.05 M Tris-hydrochloric acid buffer solution (pH = 8.8) to bring the total volume to 400 µl. To this solution, 50 µl of a l mM S-2444 solution is added and the mixture is incubated at a temperature of 37°C for 5 minutes in a constant temperature bath. Then 50 µl of a 500 unit/ml human urokinase is added and the mixture is incubated at a temperature of 37°C for 5 minutes. Thereafter, 50 µl of 50% acetic acid is added to terminate the reaction. The absorbance of the p-nitroaniline formed in the reaction mixture is measured at 405 nm. Thus, the concentration I₅₀ (µmol) of the inhibitor sample, at which the absorbance is one half (i.e., l/2) of that obtained in the absence of the inhibitor sample, is determined.

bovine thrombin [4] = biological target: T2, bovine thrombin; experiment: Antithrombin activity: inhibition of S-2238 decomposition
Description: (ii) Determination of inhibition activity on S-2238 decomposition
An inhibitor sample is dissolved in a 0.05 M Tris-hydrochloric acid buffer solution (pH = 8.3) to bring the a total volume to 400 µl. To this solution, 50 µl of a 0.2 mM S-2238 solution is added and the mixture is incubated at a temperature of 37°C for 5 minutes in a constant temperature bath. Then 50 µl of a 0.2 unit/ml bovine thrombin solution is added thereto and the absorbance, at 405 nm, of the p-nitroaniline formed per minute is determined at a temperature of 37°C by using the so-called initial velocity method. Thus, the concentration I₅₀ (µmol) of the inhibitor sample, at which the absorbance is one half (i.e., l/2) of that obtained in the absence of the inhibitor sample, is determined.

human plasma kallikrein = human plasma kallikrein (Homo sapiens, UniProt P03952); experiment: Anti-plasma kallikrein activity: inhibition of S-2302 decomposition; conditions: Table 2; substrate S-2302, pH 7.8, 37°C; read-out: Plasma Kallikrein S-2302 (concentration I₅₀)
Chain of human plasma kallikrein (P03952 391-638 limits assumed): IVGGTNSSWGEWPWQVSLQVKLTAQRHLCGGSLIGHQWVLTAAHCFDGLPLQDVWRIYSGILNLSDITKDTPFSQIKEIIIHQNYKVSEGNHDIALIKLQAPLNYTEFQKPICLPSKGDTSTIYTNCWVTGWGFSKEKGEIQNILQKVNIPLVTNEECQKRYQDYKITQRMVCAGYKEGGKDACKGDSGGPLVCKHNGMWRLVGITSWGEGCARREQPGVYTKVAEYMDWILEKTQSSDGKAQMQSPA
Chain of human plasma kallikrein (P03952 20-390 partner limits assumed): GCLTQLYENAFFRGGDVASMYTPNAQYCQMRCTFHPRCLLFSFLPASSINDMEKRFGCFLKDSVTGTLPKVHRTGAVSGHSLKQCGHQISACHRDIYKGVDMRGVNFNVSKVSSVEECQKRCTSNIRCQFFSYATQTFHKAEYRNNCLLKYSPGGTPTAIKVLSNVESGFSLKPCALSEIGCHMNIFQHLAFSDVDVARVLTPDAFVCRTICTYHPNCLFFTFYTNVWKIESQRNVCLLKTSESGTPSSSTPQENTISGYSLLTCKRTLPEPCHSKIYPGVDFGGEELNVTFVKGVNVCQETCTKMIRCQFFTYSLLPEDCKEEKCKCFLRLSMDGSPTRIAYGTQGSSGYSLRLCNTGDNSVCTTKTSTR
Description: An inhibitor sample is dissolved in a 0.05 M Tris-hydrochloric acid buffer solution (pH = 7.8) to bring the total volume to 400 µl. […] Then, 50 µl of a 0.l2 unit/ml human plasma kallikrein is added and the mixture is incubated at a temperature of 37°C for 5 minutes. Thereafter, 50 µl of 50% acetic acid is added to terminate the reaction. […] Thus, the concentration I₅₀ (µmol) of the inhibitor sample, at which the absorbance is one half (i.e., l/2) of that obtained in the absence of the inhibitor sample, is determined.

bovine trypsin = biological target: T3, bovine trypsin (Bos taurus, UniProt P00760); experiment: Antitrypsin activity: inhibition of S-2238 decomposition; conditions: Table 2; substrate S-2238, pH 8.1, 37°C; read-out: Trypsin S-2238 (concentration I₅₀)
T3 sequence (P00760 24-246): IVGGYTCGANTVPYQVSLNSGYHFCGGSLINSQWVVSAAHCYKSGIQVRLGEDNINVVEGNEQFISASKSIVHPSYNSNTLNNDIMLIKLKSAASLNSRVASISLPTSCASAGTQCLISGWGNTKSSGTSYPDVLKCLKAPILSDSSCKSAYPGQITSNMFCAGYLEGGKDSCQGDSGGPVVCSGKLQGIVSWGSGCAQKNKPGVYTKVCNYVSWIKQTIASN
Description: Determination of inhibition activity against S-2238 decomposition An inhibitor sample is dissolved in a 0.05 M Tris-imidazole buffer solution (pH = 8.l) and l25 µl of a l mM S-2238 solution is added to bring the total volume to l.20 ml. The mixture is incubated at a temperature of 37°C for 5 minutes in a constant temperature bath. To this mixture, 0.05 ml of bovine trypsin is added and the absorbance, at 405 nm, of the p-nitroaniline formed per minute is determined at a temperature of 37°C by using the so-called initial velocity method. Thus, the concentration I₅₀ (µmol) of the inhibitor sample, at which the absorbance is one half (i.e., l/2) of that obtained in the absence of the inhibitor sample, is determined.

Molecule | IC50 (human plasmin [1]) [µM] | IC50 (bovine thrombin [2]) [µM] | IC50 (human plasmin [3]) [µM] | IC50 (human urokinase) [µM] | IC50 (bovine thrombin [4]) [µM] | IC50 (human plasma kallikrein) [µM] | IC50 (bovine trypsin) [µM] | IC50 (bovine thrombin [2]; Table 2, concentration at which coagulation time is extended twice, bovine fibrinogen, pH 7.4, 37°C, read-out: Thrombin Fibrinogen (concentration I₅₀)) [µM]
CCOC(=O)CC(O)CNC(=O)[C@H](Cc1ccccc1)NC(=O)CCCCN (some centres unmarked) [Compound No. 3] | > 1000 | > 1000 | > 1000 | > 1000 | > 1000 |  |  | 
CN(Cc1ccncc1)C(=O)[C@H](Cc1ccccc1)NC(=O)CCCCCN [Compound No. 6, N-(6-aminocaproyl)-L-phenylalanine N-methyl-(4-pycoryl)amide dihydrochloride] | > 1000 |  | > 1000 | > 500 | > 500 | > 1000 |  | 
N=C(N)Nc1ccc(C(=O)N[C@@H](Cc2ccc([N+](=O)[O-])cc2)C(=O)Nc2ccc(C(=O)c3ccccc3)cc2)cc1 [Compound No. 23, N-(4-guanidinobenzoyl)-4-nitro-L-phenylalaninine 4-benzoylanilide methanesulfonate] | 89 |  |  | 11 |  | 11 | 0.43 | 
NCCCC(=O)N[C@@H](Cc1ccccc1)C(=O)Nc1ccc(C(=O)c2ccccc2)cc1 [compound 1] | 23 |  |  |  | > 200 |  |  | 
NCCCCCC(=O)N[C@@H](Cc1ccccc1)C(=O)Nc1ccc(C(=O)c2ccccc2)cc1 [compound 4] | 39 |  |  |  |  |  | > 200 | 
NCCCCCC(=O)N[C@@H](Cc1ccc(O)cc1)C(=O)Nc1ccc(C(=O)c2ccccc2)cc1 [compound 7] | > 100 | > 120 |  | 120 | > 180 | > 120 |  | 
NCCc1ccc(C(=O)N[C@@H](Cc2ccccc2)C(=O)Nc2ccc(C(=O)c3ccccc3)cc2)cc1 [compound 9] | 30 |  |  | 100 |  | 31 | 16 | 
COc1ccc(NC(=O)[C@H](Cc2ccccc2)NC(=O)c2ccc(CCN)cc2)cn1 [compound 10, N-[4-(2-aminoethyl)benzoyl]-L-phenylalanine 3-(6-methoxypyridyl)amide dihydrochloride] | 830 |  | 970 |  |  | 85 |  | 
CC(=O)c1ccc(NC(=O)[C@H](Cc2ccccc2)NC(=O)c2ccc(C(=N)N)cc2)cc1 [compound 11, N-(4-amidinobenzoyl)-L-phenylalanine 4-acetylanilide hydroiodic acid] | 23 |  | 21 | 13 |  | 0.8 | 3.6 | 
CC(=O)c1ccc(NC(=O)[C@H](Cc2ccc(OCc3ccccc3)cc2)NC(=O)c2ccc(C(=N)N)cc2)cc1 [compound 12, N-(4-amidinobenzoyl)-4-benzyloxy-L-phenylalanine 4-acetylanilide hydroiodic acid] | 2.2 |  | 0.98 | 4 |  | 0.3 | 0.75 | 
Cc1ccc(NC(=O)[C@H](Cc2ccccc2)NC(=O)c2ccc(NC(=N)N)cc2)cc1 [compound 13, N-(4-guanidinobenzoyl)-L-phenylalanine 4-methylanilide hydrochloride] | > 1000 |  | > 200 | 420 |  | 4.2 | 1.3 | 
N=C(N)Nc1ccc(C(=O)N[C@@H](Cc2ccccc2)C(=O)Nc2ccc(C(=O)c3ccccc3)cc2)cc1 [compound 16] |  |  |  | 40 |  | 3.6 | 1.5 | 
COc1ccc(NC(=O)[C@H](Cc2ccccc2)NC(=O)c2ccc(NC(=N)N)cc2)cn1 [compound 18] |  | > 1000 |  | 630 | > 1000 | 12 | 35 | 
CN(Cc1ccncc1)C(=O)[C@H](Cc1ccccc1)NC(=O)c1ccc(NC(=N)N)cc1 [compound 19] | > 1000 | > 1000 | > 1000 |  |  | 1000 |  | 
CC1CCC(NC(=O)[C@H](Cc2ccccc2)NC(=O)c2ccc(NC(=N)N)cc2)CC1C (some centres unmarked) [compound 21] | 450 | > 100 |  | 740 | 400 | 15 | 6 | 
Cc1ccc(NC(=O)[C@H](Cc2ccc(OCc3ccccc3)cc2)NC(=O)c2ccc(NC(=N)N)cc2)cc1C [compound 24] | 21 |  | 16 | 240 |  | 5.7 | 9.1 | 
COc1ccc(NC(=O)[C@H](Cc2ccc(OCc3ccccc3)cc2)NC(=O)c2ccc(NC(=N)N)cc2)cn1 [compound 25] | 160 | > 100 | 48 |  |  | 12 | 17 | 
CN(Cc1ccccc1)C(=O)[C@H](Cc1ccc(OCc2ccccc2)cc1)NC(=O)c1ccc(NC(=N)N)cc1 [compound 28] | 140 |  |  |  |  | 170 | 110 | 
N=C(N)NCCCC(=O)N[C@@H](Cc1ccc([N+](=O)[O-])cc1)C(=O)Nc1ccc(C(=O)c2ccccc2)cc1 [compound 29] | 120 |  | 82 |  |  | 56 | 17 | 
N=C(N)NC[C@H]1CC[C@H](C(=O)N[C@@H](Cc2ccc([N+](=O)[O-])cc2)C(=O)Nc2ccc(C(=O)c3ccccc3)cc2)CC1 [compound 31, N-(trans-4-guanidinomethylcyclohexylcarbonyl)-4-nitro-L-phenylalanine 4-benzoylanilide methane sulfonate] | > 100 |  |  | > 100 |  | > 100 |  | 
N-(4-guanidinobenzoyl)-L-phenylalanine 4-cis/trans-methylcyclohexylamide hydrochloride [Compound No. 20] | 140 |  | 73 | 310 |  | 45 | 15 | > 100
